According to PMC11259170, “Small-molecule probe for IBD risk variant GPR65 I231L alters cytokine signaling networks through positive allosteric modulation” (Science Advances, 2024):

Key:
hGPR65 = target: T1, hGPR65 (Homo sapiens, UniProt Q8IYL9); test: cAMP detection (Lance Ultra), GPR65 KO HeLa reconstituted with hGPR65; 21K screen dose confirmation; type: cell-based; conditions: HeLa GPR65 KO + hGPR65, pH 7.1, 30 min, normalized to DMSO and 100 μM forskolin; read-out: WT EC50
T1 construct: expressed in transfected cells; host or cells: HeLa (ATCC CCL-2), lentiviral transduction, pLX317
Procedure: (§1) The Lance Ultra cAMP Kit (PerkinElmer, TRF0264) was used for cAMP detection, and included the following reagents: ULight anti-cAMP antibody, Eu-cAMP tracer, 7.5% BSA Stabilizer solution, and cAMP detection buffer. Stimulation buffer was prepared as described by the kit manufacturer as follows: Hanks buffered saline solution (HBSS, Life Technologies, 14025-126) containing 0.5 mM IBMX (3-isobutyl-1-methylxanthine, Sigma-Aldrich, I7018) and buffered with 1 M Hepes (15630-080). Stimulation buffer was then adjusted to pH 7.1 using 12 N HCl. HeLa cells were lifted using Versene and then suspended at 2.5 × 10^5 cells/ml in stimulation buffer. Cells were then plated at 20 μl per well (5000 cells per well) in white, opaque OptiPlate 384-well MicroPlates (PerkinElmer, 6007299) using a Thermo Fisher Scientific Combi liquid dispenser. Compounds, stored at 5 mM in DMSO for the primary screen, or in a range of concentrations from 39 μM to 20 mM for dose curves, were transferred by the CyBio CyBi-Well Vario pin transfer tool with 100-nl pins (V&P FP1NS50H, 50-nl slot, 0.457-mm diameter, hydrophobic coated), into each assay well, 100 nl per well for a final assay concentration of 25 μM for the primary screen, or 195 nM to 100 μM for dose curves. Assay plates were then incubated at RT for 30 min. Eu-cAMP tracer was diluted 1:33 into detection buffer and the final solution then distributed into assay wells, 5 μl per well. ULight anti-cAMP antibody was diluted 1:100 into detection buffer, then distributed into assay wells, also 5 μl per well. Assay plates were then incubated at RT in the dark for 1 hour. Eu-cAMP tracer and Förster resonance energy transfer (FRET) emissions were then read using a PerkinElmer EnVision Multimode plate reader (ENVISION21040010), exciting each well at 320 nm [UV2 (TRF) 320 filter] and reading emissions at 615 nm (Europium 615 filter) and 665 nm (APC665 filter). Data analysis was performed using Genedata Screener and GraphPad Prism.
(§2) HeLa KO cell lines were generated using the px330 plasmid CRISPR system as previously described ([18]). Briefly, HeLa cells were transfected with a Cas9 vector containing a gene-specific single-guide RNA to target the GPR65 coding exon. Forty-eight to 72 hours after transfection, single clones were obtained through limiting dilution and then sequenced to validate the KO. Reconstituted cell lines were produced by transducing KO cells with empty lentivirus or lentivirus containing hGPR65 or mGPR65. After 48 hours, cells were treated with puromycin (3 μg/ml; InvivoGen, ant-pr-1) and resistant cells were used in experiments.

[1] = test system: GPR65 KO HeLa cells + pLX empty vector; test: cAMP detection, GPR65 KO HeLa + empty pLX vector (null control); type: cell-based, human; conditions: HeLa GPR65 KO + pLX, pH 7.1, 30 min, normalized to DMSO and 100 μM forskolin
Procedure: as §1, §2

T1 sequence (Q8IYL9 whole entry): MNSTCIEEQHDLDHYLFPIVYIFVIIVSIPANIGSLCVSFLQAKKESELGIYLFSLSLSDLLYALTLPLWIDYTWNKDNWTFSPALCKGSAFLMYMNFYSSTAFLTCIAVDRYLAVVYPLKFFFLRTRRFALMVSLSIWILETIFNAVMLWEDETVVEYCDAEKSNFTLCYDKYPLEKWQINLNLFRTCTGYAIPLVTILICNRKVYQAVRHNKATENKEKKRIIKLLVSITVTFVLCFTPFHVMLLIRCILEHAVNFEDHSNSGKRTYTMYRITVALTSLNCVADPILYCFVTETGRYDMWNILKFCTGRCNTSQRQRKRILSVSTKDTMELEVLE

Question: What does the source list for `CC(Sc1nc2ncnc(N)c2[nH]1)C(=O)O` (stereo not shown) [BRD-A18106607-001-02-5]?
Answer: EC50 (hGPR65): 6 µM; EC50 [1]: 6.4 µM

Question: With `O=C1CC(N2CCN(c3ncccn3)CC2)C(=O)N1c1ccccc1` (stereo not shown) [BRD-A87117975-001-02-2] as the compound, how does the EC50 (hGPR65) read?
Answer: The EC50 was 71.1 µM.

Question: What about the EC50 [1] of the same compound?
Answer: Its EC50 is 54.8 µM.

Question: Which results are given for `COc1ccc(C(=O)c2cn(CC(=O)Nc3nc4c(s3)CCCC4)c3cnccc23)cc1` [BRD-K74442183-001-02-5]?
Answer: EC50 (hGPR65): < 30 µM; EC50 [1]: < 30 µM

Question: What does the source list for `COc1ccc(Nc2nnc(-c3ccc(C(N)=O)cc3)c3ccccc23)cc1` [BRD-K46612369-001-11-5]?
Answer: EC50 (hGPR65): > 100 µM; EC50 [1]: > 100 µM

Question: `Cc1cnccc1CN1CC(C(=O)O)CC1=O` (stereo not shown) [BRD-A19095755-001-02-9] was tested. Which EC50 (hGPR65) did it give?
Answer: The EC50 was 20.1 µM.

Question: What about the EC50 [1] of the same compound?
Answer: The EC50 was 16.9 µM.

Question: How did the EC50 (hGPR65) turn out when `Cn1ccc2c(-c3ccc(C(=O)N4CCCC4)cn3)ccnc21` [BRD-K29607656-001-02-7] was run?
Answer: The EC50 was > 100 µM.

Question: What about the EC50 [1] of the same compound?
Answer: The EC50 was > 100 µM.

Question: What does the source list for `O=C(CN1CCC(c2ccncc2)CC1)N1CCOCC1` [BRD-K33295678-001-02-9]?
Answer: EC50 (hGPR65): > 100 µM; EC50 [1]: > 100 µM

Question: Which EC50 (hGPR65) does the source give for `O=C(O)c1nccnc1C(=O)N1CCCN(c2c(Cl)cncc2Cl)CC1` [BRD-K53955368-001-02-8] here?
Answer: Its EC50 is > 100 µM.

Question: What about the EC50 [1] of the same compound?
Answer: Its EC50 is > 100 µM.

Question: For `CN(Cc1ccc2ncccc2c1)C(=O)[C@@H]1C[C@H](N)CN1C` [BRD-K56675411-001-02-6], which EC50 (hGPR65) is on record?
Answer: The EC50 was 70.2 µM.

Question: And the EC50 [1]?
Answer: Its EC50 is 57.3 µM.

Question: For `O=C(c1ccc2nc[nH]c2c1)N1CCC(CCOc2ccccc2)(C(=O)O)CC1` [BRD-K25972060-001-03-7], which EC50 (hGPR65) is on record?
Answer: Its EC50 is 4.6 µM.

Question: And the EC50 [1]?
Answer: The EC50 was 4.9 µM.

Question: `COc1ccc(S(=O)(=O)N2C[C@@H](N)[C@H](c3cn(C)c4cnccc34)C2)cc1` [BRD-K00063734-001-02-2] was tested. Which EC50 (hGPR65) did it give?
Answer: Its EC50 is 73.6 µM.

Question: What about the EC50 [1] of the same compound?
Answer: The EC50 was 63.2 µM.

Question: Which results are given for `NC(=O)C1CCN(C(=O)CN2CCN(c3ccnc4cc(Cl)ccc34)CC2)CC1` [BRD-K56344229-001-02-1]?
Answer: EC50 (hGPR65): 15.6 µM; EC50 [1]: 12.5 µM

Question: Which results are given for `CCCCC(CC)C(=O)Oc1ccc2c(c1)oc(=O)c1ccccc12` (stereo not shown) [BRD-A19872532-001-02-1]?
Answer: EC50 (hGPR65): > 100 µM; EC50 [1]: > 100 µM

Question: Which EC50 (hGPR65) does the source give for `CS(=O)(=O)N1CCN(c2ccnc3cc(Cl)ccc23)CC1` [BRD-K06900104-001-09-6] here?
Answer: The EC50 was 27.5 µM.

Question: What about the EC50 [1] of the same compound?
Answer: Its EC50 is 23 µM.

Question: What does the source list for `O=C(Nc1cccc2nsnc12)c1sc2ccccc2c1Cl` [BRD-K76966415-001-02-1]?
Answer: EC50 (hGPR65): < 30 µM; EC50 [1]: < 30 µM

Question: For `Cc1ccc(C(=O)Cn2c(=O)n(C(C)C)c3nc(-c4ccc(F)cc4)nc(C(N)=O)c32)cc1` [BRD-K81805280-001-02-6], which EC50 (hGPR65) is on record?
Answer: The EC50 was > 100 µM.

Question: And the EC50 [1]?
Answer: Its EC50 is > 100 µM.

Question: Which results are given for `O=C(c1ccco1)N1CCN(c2ccnc3cc(Cl)ccc23)CC1` [BRD-K27679143-001-08-6]?
Answer: EC50 (hGPR65): 18.3 µM; EC50 [1]: 15.6 µM

Question: How did the EC50 (hGPR65) turn out when `O=S1(=O)CCC(Cn2cc(-c3ccnc4ccccc34)nn2)C1` (stereo not shown) [BRD-A69528226-001-02-9] was run?
Answer: The EC50 was 19.9 µM.

Question: What about the EC50 [1] of the same compound?
Answer: The EC50 was 17 µM.

Question: `CCN1C[C@@H](COC)[C@]2(CCN(C(=O)N3CCCC3)C2)C1` [BRD-K23021624-001-01-8] was tested. Which EC50 (hGPR65) did it give?
Answer: Its EC50 is > 100 µM.

Question: What about the EC50 [1] of the same compound?
Answer: Its EC50 is > 100 µM.

Question: With `O=c1c(-c2ccccc2)nnc2sc(-c3ccc4c(c3)OCCO4)nn12` [BRD-K26812102-001-02-6] as the compound, how does the EC50 (hGPR65) read?
Answer: The EC50 was > 100 µM.

Question: What about the EC50 [1] of the same compound?
Answer: Its EC50 is > 100 µM.

Question: With `CC(NC(=O)c1ccc2ncccc2c1)c1cc(=O)[nH]c(N2CCN(C)CC2)n1` (stereo not shown) [BRD-A49179268-001-02-5] as the compound, how does the EC50 (hGPR65) read?
Answer: Its EC50 is 83.4 µM.

Question: What about the EC50 [1] of the same compound?
Answer: Its EC50 is 67.5 µM.

Question: For `COC(=O)c1cc2c(s1)-c1cc(F)ccc1OC2` [BRD-K56384677-001-09-9], which EC50 (hGPR65) is on record?
Answer: Its EC50 is 90 µM.

Question: And the EC50 [1]?
Answer: Its EC50 is 94.3 µM.

Question: For `Nc1cccnc1Sc1nc2cccnc2s1` [BRD-K10062067-001-02-9], which EC50 (hGPR65) is on record?
Answer: The EC50 was > 100 µM.

Question: And the EC50 [1]?
Answer: The EC50 was > 100 µM.

Question: What does the source list for `Cc1nc(C2CCCNC2)cc(N(C)Cc2cccc3cnccc23)n1` (stereo not shown) [BRD-A78843635-001-02-6]?
Answer: EC50 (hGPR65): > 100 µM; EC50 [1]: 95.8 µM

Question: For `Cc1cc2c(cc1-c1cncn1CCN(C)C1CCCC1)n(C)c(=O)n2C` [BRD-K91081402-001-02-5], which EC50 (hGPR65) is on record?
Answer: Its EC50 is > 100 µM.

Question: And the EC50 [1]?
Answer: Its EC50 is > 100 µM.

Question: For `CC(C)CCn1c(Sc2nc3ccccc3s2)nc2c1c(=O)[nH]c(=O)n2C` [BRD-K74743357-001-08-3], which EC50 [1] is on record?
Answer: The EC50 was 77.4 µM.

Question: How did the EC50 [1] turn out when `O=C(CSc1ncnc2sc3c(c12)CCCC3)Nc1nccs1` [BRD-K40136431-001-02-4] was run?
Answer: Its EC50 is > 100 µM.
